# Experimental data as given in a melting point compilation (Tetko et al.; mined from patent text by program, amines drawn as free bases though some values may be those of a salt).
row,Structure (SMILES),melting point [°C]
1,CCC(CC)c1ccc(Cl)c2nc(Nc3c(C)cc(Cl)cc3OC)n(CC(=O)OC(C)C)c12,205 to 207
2,CCCCCCCCCCCCCCCCCCCCC(=S)NCCN1CCOCC1,61
3,CS(=O)(=O)c1ccc(-c2cnn(CC(F)(F)F)c(=O)c2NCCCO)cc1,152 to 154
4,CCCCc1oc2ccc(-c3nnn[nH]3)cc2c1C(=O)c1ccc(OCCCN(CCCC)CCCC)cc1,145 to 147
5,CN1CCN(CC2CCN(c3ncc4ncnc(Nc5ccc(F)c(Cl)c5)c4n3)CC2)CC1,138 to 140
6,O=C(Nc1ccc2[nH]nnc2c1)N1CCN(c2nc(-c3ccccc3)ns2)CC1,271 to 272
7,CC1(C)Nc2ccc(Br)cc2C(NC(=NC#N)Nc2ccccc2)C1O (centres undefined),232 to 233
8,CS(=O)(=O)N(c1cc(-c2ncc(C(F)(F)F)cc2Cl)ccc1Cl)S(C)(=O)=O,230 to 231
9,CO[C@@H](CCc1nc(-c2ccccc2)oc1C)c1ccc(C=C2SC(=O)NC2=O)cc1,205 to 206
10,COC1=C(OC)C(=O)C(CCCCCCCCCCCCCCCCCCCCCC(=O)O)=C(C)C1=O,86 to 87
11,CC(=O)Oc1cccc2c1C(=O)c1c(OC(C)=O)cccc1C2C(=O)C1CCCC1,180
12,COc1ccc([C@@H](CO)[C@H]2CCCCN2C(=O)OC(C)(C)C)cc1,115 to 117
13,CC(=O)c1ccc(O)c(CCCc2ccccc2)c1O,120 to 122
14,CCC(=O)N1CCC(NC(=O)Nc2c(Cl)cccc2Cl)CC1,170 to 174
15,Cc1cc(OCCC#Cc2ccc(OC(F)(F)F)cc2)ccc1OC(C)(C)C(=O)O,62 to 71
16,N#Cc1cc(Cl)c(-n2ncc(-c3nc(C#N)c(C#N)[nH]3)n2)c(Cl)c1,183 to 185
17,COc1cc(NC(=O)OCCCN2CCC(c3nn(C)c4cc(F)ccc34)CC2)cc(OC)c1OC,85 to 88
18,COc1cc2c(cc1F)C1(CO2)C(=O)N(Cc2ccc(C(F)(F)F)o2)c2ccccc21 (centres undefined),45 to 47
19,CC(=O)NC[C@H]1CN(c2ccc(N3CCC4(CC3)CSCO4)c(F)c2)C(=O)O1,114 to 116
20,NNc1nncc(-c2ccccc2)n1,144 to 146
21,Oc1cccc(-c2nc3n(n2)Cc2ccccc2-3)c1,251 to 252
22,Cc1ccccc1C(C#N)=C1C=CC(=NOP(=O)(c2ccccc2)c2ccccc2)S1,165 to 167
23,COc1cccc(C2=C(CN(C)C)COc3ccccc32)c1,68 to 71
24,O=C(O)c1cc(C(=O)O)c(C(O)=NCc2ccc(C(F)(F)F)cc2)cc1C(O)=NCc1ccc(C(F)(F)F)cc1,263 to 264
25,COc1ccc(S(=O)(=O)N2C(=O)C(c3ccccc3OC)(N3CCc4ccccc4[C@H]3C(=O)N(C)C)c3cc(Cl)ccc32)c(OC)c1 (some centres undefined),263

row,Structure (SMILES),melting point [°C]
1,CNc1cnn(-c2cccnc2)c1Br,77 to 79
2,Cc1ccc(CCC(=O)CC(=O)CCc2ccc(C)cc2)cc1,45.6 to 46.8
3,CCOC(=O)c1ccc(-c2nc(COc3ccc(COc4nn(-c5ccccc5)cc4C=O)cc3OC)c(C)o2)o1,143 to 145
4,COc1cc2ccc(CC(=S)N3CCOCC3)cc2cc1OC,158 to 161
5,O=c1nc(-c2ccccc2C(F)(F)F)sc2ccccc12,140
6,O=C(NCCNC(c1ccccc1)(c1ccccc1)c1ccccc1)C(CCO)NC(c1ccccc1)(c1ccccc1)c1ccccc1 (centres undefined),71 to 72
7,Cc1ccc2c3c(ccc2n1)OCC(CN1C2CCC1CC(O)(c1cccc(C(F)(F)F)c1)C2)O3 (centres undefined),146 to 150
8,COc1cc2cn(-c3c(C)c(C)c4c(c3C)C(c3ccc(C)cc3)C(C)(C)O4)cc2cc1OC (centres undefined),146 to 147
9,COc1cc2c(cc1OC(C)C)-c1c(-c3cccnc3)c3c(n1CC2)C(=O)N(C(C)(C)C)CCOC3,193 to 194
10,O=C(O)c1ccccc1SCc1nccc2ccccc12,170 to 172
11,O=C(O)CCCOc1cccc(-c2n[nH]c3c2Cc2ccccc2-3)c1,216 to 217
12,O=CCCCCC(=O)Nc1ccc(C(F)(F)F)cc1,130 to 131
13,OCCOCC=C(c1ccc(Cl)cc1)c1ccc(Cl)cc1,93 to 95
14,N#CC(=NOC(=O)OCc1ccccc1)c1ccccc1,73 to 75
15,O=C(O)c1ccc(-c2ccc(Cl)s2)nc1,> 260
16,CNC(=O)NCCN1CCC(=C2c3ccccc3CCn3ccnc32)CC1,178
17,N#CC(=O)c1ccccc1Cl,33
18,Cc1cccc(OCC(=O)N[C@@H](Cc2ccccc2)C(=O)CSCc2ccco2)c1,76 to 78
19,CCOC(=O)Cc1nnc(NS(=O)(=O)c2ccc(NC(C)=O)cc2)s1,156 to 157
20,CNC(=O)C1CC(C)CCC1C(C)C (centres undefined),95 to 97
21,CCOc1nsnc1O,104 to 106
22,N#Cc1ccc(-c2ccc(Br)cc2)cc1,147 to 148
23,Cc1ccc2c(c1)N(CC(=O)NC(C)(C)C)C(=O)C(Br)CC2CC1CCCCC1 (centres undefined),166 to 170
24,OCc1cc(-c2ccc(Cl)cc2)on1,93 to 95
25,CCc1nc(-c2cccc(C)c2)c(-c2ccnc(NC(=O)C3CCCCC3)c2)s1,98 to 100

row,Structure (SMILES),melting point [°C]
1,O=S(c1ccc(Cl)cc1)c1cc(C(F)(F)F)[nH]c1-c1ccc(Cl)cc1 (centres undefined),174 to 176
2,CCC(Cc1c(I)cc(I)c(NC(=O)CN2CCNCCNCCNCC2)c1I)C(=O)O (centres undefined),201
3,O=[N+]([O-])c1ccc2c(c1)C[C@H]1CSC(=S)N1C2,220
4,CCOC(=O)C1=Cc2ccc(OCc3ccccc3)cc2OCC1,75 to 76
5,CS(=O)(=O)c1ccc(Cl)cc1C(=O)O,138 to 146
6,O=S1(=O)NC(C2CCCCC2)Nc2ccc(S(=O)(=O)N3CCCC3)cc21 (centres undefined),244 to 246
7,N#CN=C(Nc1ccc(NCCF)nc1)Oc1ccccc1,157 to 158
8,CCNC(=O)Nc1nc2ccc(Cc3ccccn3)cc2s1,184 to 185
9,CCOC(=O)C1=C(c2cccc(Cl)c2Cl)N(C(=O)OCC)C(=O)NC1C (centres undefined),140 to 141
10,CC(C)CC=Cc1c(C(C)C)nc(C(C)C)c(CO)c1-c1ccc(F)cc1,48 to 50
11,Cc1cccc2[nH]cnc12,141 to 145
12,Cc1nc(-c2ncn3c2c(C)nc2ccccc23)no1,192 to 193
13,COc1ccc(CSc2nc3cnccc3[nH]2)cc1,160 to 161
14,O=C1NCCN1CCN1CC=C(c2cn(-c3ccc(F)cc3)c3ccc(C(F)(F)F)cc23)CC1,200
15,CCOC(=O)c1c(C(F)(F)F)nc(C(F)F)c(C=O)c1CC,63.5 to 65
16,CN(C)C=NC(=S)Nc1ccccc1,139 to 143
17,O=C(O)c1ccc(-c2c3ccccc3nn2Cc2ccccc2)cc1,159 to 163
18,CCOc1nn(Cc2ccc(OCc3nc(-c4ccccc4)oc3C)nc2)cc1CCC(=O)O,143 to 144
19,CCC(CCOc1ccc(-c2ccc(C(=O)O)cc2)cc1-c1ccc2c(c1)C(C)(C)CCC2(C)C)NC1CC1 (centres undefined),161
20,O=C1C2=C(CCCC2)C(=O)N1c1ccc(Cl)c(O)c1,236 to 238
21,OCCOc1c(Br)cc(Br)c2cccnc12,128 to 131
22,O=C(O)COc1ccc(SCc2ccc(OCc3ccc(Cl)c(C(F)(F)F)c3)cc2)c2c1CCC2,151 to 152
23,Brc1ccc2c(c1)-c1nc(-c3ccccc3)sc1CC2,85
24,CCOC(=O)C=Cc1cnn2c(N(C)c3ccccc3)ncnc12,139
25,CN(C)C(=O)COC(=O)COc1ccc(C(=O)Nc2ccccc2Sc2ccccc2-c2nnn[nH]2)cc1,205 to 206

row,Structure (SMILES),melting point [°C]
1,N#Cc1ccc2c(c1)CCC(c1ccccc1F)=C2CCO,119
2,Oc1ccc2c(c1O)Cc1ccccc1-2,159 to 162
3,CC(CC(C)(C)O)Nc1ncc2cc(Oc3ccc(F)cc3F)c(=O)n(C)c2n1 (centres undefined),159 to 161
4,Fc1cc(Cl)ccc1/C=C/c1nc(COc2ccc(-c3nc(Cn4ccnc4)co3)cc2)co1,166 to 167
5,CC(C)(C)c1cccc(C(C)(C)C)c1OS(C)(=O)=O,83
6,CCOC(=O)C=Cc1cccc(OCc2nc(-c3ccccc3)oc2C)c1,91 to 92
7,COc1cc(Cc2cnc(N)nc2N)cc(OC)c1,164 to 168
8,CON=C(C#N)C1=CCCN(OC(=O)Nc2ccccc2)C1,128 to 130
9,Cc1csc(C2=NOCCO2)c1S(N)(=O)=O,155
10,CNC(=O)NC(Cc1c[nH]c2ccccc12)C(=O)NCc1cc(C(F)(F)F)cc(C(F)(F)F)c1 (centres undefined),213 to 215
11,CC(=O)Nc1ccc(-c2cccc(-c3nc(C(C)C)[nH]c3-c3cccc(C)n3)c2)cc1,140 to 145
12,C=CCSc1ccc2[nH]c(NC(=O)OC)nc2c1,197 to 198
13,CO/N=C(/C(C)=O)C(=O)OC(C)(C)C,80 to 85
14,CN(CCO[N+](=O)[O-])C(=O)COC(=O)c1cc(S(N)(=O)=O)c(Cl)cc1NCc1ccco1,70 to 72
15,COc1cc2c(cc1-c1ccccc1)CCCc1c-2nc2ccc(F)cc2c1C(=O)O,> 300
16,COc1cccc([C@H]2O[C@H](CC(=O)N[C@@H](C)C(=O)O)C(=O)N(CC(C)(C)CO)c3ccc(Cl)cc32)c1OC,133 to 135
17,CC(C)Oc1ccc(C(=O)NCCN2CCC(Oc3ccc(Cl)c(Cl)c3)CC2)cc1,113 to 115
18,CCN(CC)C(=S)SCCNC(=O)CCNC(=O)OCc1ccccc1,90 to 93
19,CCS(=O)(=O)c1ccc(-c2nc(-c3nc4cc(OC)cc(OC)c4c(=O)[nH]3)ccc2OCCO)cc1,282 to 284
20,CCOC(=O)CNc1ncccc1NC(=O)c1ccccc1OC,111 to 112
21,CC(C)(C)OC(=O)N1CCC(c2nc3cc(-c4ccc(C#N)c(F)c4)ccc3o2)CC1,138 to 142
22,Cc1nn(-c2ccc([N+](=O)[O-])cc2F)c(=O)n1C(F)F,72 to 77
23,C/C(CCN1CCCC1c1ccc(Cl)c(Cl)c1)=N\O (centres undefined),145 to 147
24,COC(=O)[C@]1(OS(C)(=O)=O)C[C@H](CC(C)C)[C@@H](O)[C@H](O)C1,122 to 123
